Measured values reported in patent US20140287495A1, “Methods of Inducing Differentiation of Stem Cells” (ES Cell International Pte LTD, priority 2001, published 2014).

Experiments:
[1] = tested on: P19 EC cells; assay: Induction of beating muscle in replated P19 EC aggregates (hanging-drop assay); assay type: cell-based, mouse; details: P19EC aggregates, day 10
Description: END-2 cells and hES cells were cultured as described in Example 1. The hES2 cell line from ES Cell International Pte Ltd was used in all experiments. […] Co-cultures were then grown for up to 6 weeks and scored for the presence of areas of beating muscle from 5 days onwards. HepG2 cells, a carcinoma cell line resembling liver parenchymal cells (Knowles et al, (1980) Science 209:497-9), were cultured in DMEM plus 10% FCS and passaged twice weekly. […] Hanging-drop cultures of P19 EC cells were initiated and maintained in DMEM/Ham's F12 (1:1), as described previously (Mummery et al, 1991), using regular FCS while bulk production of P19 embryoid bodies in the presence or absence of END-2 conditioned medium for isolation of RNA for Northern blotting, was in the presence of charcoal-stripped FCS, as described (Mummery et al, 1991) to reduce background levels of cardiomyocyte differentiation caused by lipophilic substances possibly with retinoid-like activity in FCS. P19 clone 6 were cultured in aMEM and treated aMEM conditioned by END-2 cells. For electrophysiology, beating aggregates were dissociated using collagenase and replated on gelatine-coated coverslips. […]

[2] = tested on: Brachyury T; assay: Northern blot of Brachyury T expression in P19EC aggregates; assay type: cell-based, mouse; details: FIG. 10B
Description: (§1) END-2 cells and hES cells were cultured as described in Example 1. The hES2 cell line from ES Cell International Pte Ltd was used in all experiments. […] Co-cultures were then grown for up to 6 weeks and scored for the presence of areas of beating muscle from 5 days onwards. HepG2 cells, a carcinoma cell line resembling liver parenchymal cells (Knowles et al, (1980) Science 209:497-9), were cultured in DMEM plus 10% FCS and passaged twice weekly. […] Hanging-drop cultures of P19 EC cells were initiated and maintained in DMEM/Ham's F12 (1:1), as described previously (Mummery et al, 1991), using regular FCS while bulk production of P19 embryoid bodies in the presence or absence of END-2 conditioned medium for isolation of RNA for Northern blotting, was in the presence of charcoal-stripped FCS, as described (Mummery et al, 1991) to reduce background levels of cardiomyocyte differentiation caused by lipophilic substances possibly with retinoid-like activity in FCS. P19 clone 6 were cultured in aMEM and treated aMEM conditioned by END-2 cells. For electrophysiology, beating aggregates were dissociated using collagenase and replated on gelatine-coated coverslips.
RNA was isolated from P19 aggregates and poly A+RNA selected, as described previously (Mummery et al, 1990, Dev. Biol. 142: 406-413).
Background differentiation levels are reduced virtually to zero if the FCS is passed over an activated charcoal column (DCC-FCS) to remove residual retinoids; in addition, differentiation is blocked by activin (van den Eijnden-van Raaij et al, 1991, Mech. Dev. 33:157-166). […] The P19EC assay system was preferred because these cells are feeder independent for undifferentiated growth. […] Moreover, the induction of Brachyury T is blocked by the additional presence of activin (FIG. 10B), consistent with its ability to block the formation of beating muscle in aggregates. The transient expression of Brachyury T is similar to that observed during early mesoderm differentiation during gastrulation of the mouse embryo.

[3] = tested on: hES-derived cardiomycytes; assay: Beating of hES-derived cardiomyocytes in response to pharmacological agonists; assay type: cell-based, human; details: hES2/END-2 co-culture derived cardiomyocytes; basal beating 45-60 times per minute
Description: as §1
The majority of the experiments described here were carried out using the hES2 cell line (Reubinoff et al, 2000). […] Oct-4 expression thus correlated with phenotypic characteristics of undifferentiated cells. hES cells were subcultured by transferring small clumps of undifferentiated cells either to new, mit.C-treated MEFs or confluent cultures of mit.C-treated END-2 cells. After approximately 5d under these conditions, epithelial cells became evident which over the next few days become fluid-filled cysts (FIG. 1A). […] In addition, by 10 d areas of rhythmically contracting cells in more solid aggregates become evident (FIG. 1A,3e) with a variety of overall morphologies (FIG. 1B,3e). […]

[4] = tested on: P19 EC cells; details: END-2 conditioned medium induced differentiation; cited from earlier work

What does the source list for `C[S+](C)[O-]` [DMSO, dimethyl sulphoxide]?
aggregates beating [1]: All aggregates beat; Brachyury T (early mesoderm marker) expression ([2]; aggregation phase, first 3 days, Northern blot): induced

For `CC(C)NCC(O)c1ccc(O)c(O)c1` (centres unmarked) [isoprenaline], which “beating of hES-derived cardiomyocytes in response to agonist” value (“beating of hES-derived cardiomyocytes” for short) [3] is on record?
Its value is “upregulated”.

Which “beating of hES-derived cardiomyocytes” value [3] does the source give for `C[N+](C)(C)CCOC(N)=O` [carbachol] here?
Its value is “upregulated”.

For `CNC[C@H](O)c1cccc(O)c1` [phenylephrine], which “beating of hES-derived cardiomyocytes” value [3] is on record?
Its value is “upregulated”.

For “activin: factor that blocks Brachyury T induction and the formation of beating muscle in aggregates”, which “cardiomyocyte differentiation of P19 EC aggregates in presence of activin” value [4] is on record?
Its value is “blocked”.

And the “DMSO induced Brachyury T expression in presence of activin” value ([2]; P19EC aggregates)?
Its value is “blocked”.

And the “END-2 CM induced Brachyury T expression in additional presence of activin” value ([2]; P19EC aggregates)?
Its value is “blocked”.
